Where two headings read alike, the source gives them in different places.
Assays:
p53(Y220C) = molecular target: T1, p53(Y220C) (Homo sapiens, UniProt P04637, Y220C); assay: In vitro DNA binding assay (HTRF), His-p53 Y220C (94-294) with biotinylated p53 consensus DNA; type: biochemical
T1 construct: His-p53 Y220C (94-294) protein
Procedure: After His-p53 Y220C (94-294) protein was placed with a compound in the present of MAb Anti His-Tb cryptate (Cisbio, Cat. NO. 61HI2TLA) in a 384 well microplate (Greiner) for 15 min at 25 °C, the assay plate was transferred into 27 °C incubator and incubated for 60 min. Biotinalyted p53 consensus DNA (ID: p53-SEQUENCE 2 —F: 5′(biotin)-[…] 3′ —R: 5′ […] 3′) was added into the assay plate in the present of Streptaidin-d2 (Cisbio, Cat. NO. 610SADLF) cryptate (Final concentration: 20 mM HEPES pH=7.4, 75 mM KCl, 1 mM MgCl2, 0.1% (w/v) BSA, 1 mM DTT, 2.5 nM His-P53 Y220C (94-294) protein, 0.33 nM MAb Anti His-Tb cryptate, 2.5 nM Streptaidin-d2 cryptate, 10 nM Biotinalyted DNA) and incubated for another 60 min. Wells containing 2 μM reference compound Ref-1a served as high control, and wells containing same percentage of DMSO served as low control. Homogeneous time-resolved fluorescence (HTRF) signals were read on Tecan Spark multimode microplate reader. HTRF ratios for each individual well were calculated by equation: HTRF ratio=(Signal F665/Signal F620)*1000. The percent of activation of compounds treated wells were normalized between high control and low control (% Activation=(HTRF ratiocompound treated−HTRF ratiolow control)/(HTRF ratiohigh control−HTRF ratiolow control)*100%). Then the data were analyzed either by fitting a 4-parameter logistic model or by Excel to calculate EC50 values. And the EC50 was the concentration at 50% Activation on the curve.

NUGC-3 (P53 Y220C) = assay: Cell viability assay (CellTiter-Glo); type: cell-based; settings: NUGC-3 cells, 6 days, 37 °C
Procedure: Cells were collected and counted. A desired number of cells was seeded into 96-well microplate and cultured in 37 °C cell incubator overnight. Compounds dissolved in cell culture medium were added into cell plate and cultured for 6 days. After balancing CellTiter-Glo reagent and cells at room temperature for 30 min, equal volume of CellTiter-Glo reagents was added to assay plate and shaken for 2 min for cell lysis. The cells were balanced at room temperature for 10 minutes and Luminescence signal was read using Envision. The percent of cell viability for compounds treated wells were normalized between High control and low control. Wells containing cell culture medium and same percentage DMSO served as Low control. Wells containing cells and same percentage DMSO served as High control. Cell viability (%)=(Luminescence readoutCompound treated−Luminescence readoutLow control)/(Luminescence readoutHigh control−Luminescence readoutLow control)*100%. Then the data were analyzed either by fitting a 4-parameter logistic model or by Excel to calculate IC50 values. And the IC50 was the concentration at […] Cell viability on the curve.

p53(Y220C)_NUGC-3 = p53(Y220C)_NUGC-3 (Homo sapiens, UniProt P04637, Y220C); assay: Reporter gene assay (NUGC-3_P53_Luc cells); type: cell-based
Procedure: NUGC-3_P53_Luc single clonal cell line was established using pGL4.38[luc2P/p53 RE/Hygro] Vector (E365A, promega). NUGC-3_P53_Luc single clonal cells were cultured in 37 °C cell incubator before use. NUGC-3_P53_Luc cells were collected and washed twice with PBS to remove phenol red and then resuspended in medium to a proper concentration. Tested compound dilutions were transferred into 384 well assay plates (PerkinElmer). A desired number of cells was seeded into the assay plate and cultured for 6 hours at 37 °C cell incubator. Britelite plus Luciferase Assay Reagent were added into each well and the luminescence value was recorded on Envision. The percent of activity value of compounds treated wells was normalized between high control and low control. Wells containing cells and Ref-la (10 μM) served as high control, and wells containing cells and same percentage of DMSO served as low control. Activity value (%)=(Luminescence readoutCompound treated−Luminescence readoutLow control)/(Luminescence readoutHigh control−Luminescence readoutLow control)*100%. Then the data were analyzed either by fitting a 4-parameter logistic model or by Excel to calculate EC50 values and the EC50 was the concentration at 50% Activity on the curve.

[1] = HTRF, 27 °C, His-p53 Y220C (94-294) 2.5 nM, biotinylated DNA 10 nM, normalized to 2 μM Ref-1a, EC50 = concentration at 50% Activation, read-out: p53(Y220C) EC50
[2] = 6 hours, 37 °C, luciferase, normalized to Ref-1a 10 μM, EC50 = concentration at 50% Activity, read-out: p53(Y220C)_NUGC-3 EC50

EC50 (p53(Y220C); [1]) [nM] | EC50 (p53(Y220C)_NUGC-3; [2]) [nM] | EC50 (p53(Y220C)) [nM] | EC50 (p53(Y220C)_NUGC-3; read-out: p53(Y220C)_NUGC-3 EC50, 6 hours, 37 °C, luciferase, normalized to Ref-1a 10 μM, EC50 = concentration at 50% Activity) [nM] | Structure (SMILES) | IC50 (NUGC-3 (P53 Y220C); Homo sapiens, 144 h) [nM] | IC50 (NUGC-3 (P53 Y220C)) [nM]
58 | 143 | – | – | COc1cc([S@@](=N)(=O)C2CC2)ccc1NCC#Cc1sc2c(N[C@@H]3CCN(C)C[C@@H]3F)cccc2c1CC(F)(F)F [Example 54, (S)-cyclopropyl(4-((3-(7-(((3S,4R)-3-fluoro-1-methylpiperidin-4-yl)amino)-3-(2,2,2-trifluoroethyl)benzo[b]thiophen-2-yl)prop-2-yn-1-yl)amino)-3-methoxyphenyl)(imino)-16-sulfanone] | – | 1050
31 | 196 | – | – | CN1CC[C@@H](Nc2cccc3c(CC(F)(F)F)c(C#CCNc4ccc(P(C)(C)=O)c5c4C(=O)NC5)sc23)[C@@H](F)C1 [Example 55, 4-(dimethylphosphoryl)-7-((3-(7-(((3S,4R)-3-fluoro-1-methylpiperidin-4-yl)amino)-3-(2,2,2-trifluoroethyl)benzo[b]thiophen-2-yl)prop-2-yn-1-yl)amino)isoindolin-1-one] | 1290 | –
45 | 61 | – | – | [2H]C([2H])([2H])Oc1nc(P(C)(C)=O)ccc1NCC#Cc1sc2c(N[C@@H]3CCN(C)C[C@@H]3F)cccc2c1CC(F)(F)F [Example 56, (5-((3-(7-(((3S,4R)-3-fluoro-1-methylpiperidin-4-yl)amino)-3-(2,2,2-trifluoroethyl)benzo[b]thiophen-2-yl)prop-2-yn-1-yl)amino)-6-(methoxy-d3)pyridin-2-yl)dimethylphosphine oxide] | 430 | –
37 | 164 | – | – | COc1c(NCC#Cc2sc3c(N[C@@H]4CCN(C)C[C@@H]4F)cccc3c2CC(F)(F)F)ccc(P(C)(C)=O)c1OC [Example 57, (4-((3-(7-(((3S,4R)-3-fluoro-1-methylpiperidin-4-yl)amino)-3-(2,2,2-trifluoroethyl)benzo[b]thiophen-2-yl)prop-2-yn-1-yl)amino)-2,3-dimethoxyphenyl)dimethylphosphine oxide] | 790 | –
35 | 44 | – | – | COc1cc([S@@](C)(=N)=O)ccc1NCC#Cc1sc2c(N[C@H]3CCN(C)C[C@@H]3F)cccc2c1[C@@H](O)C(F)(F)F [Example 58, (S)-(4-((3-(7-(((3S,4S)-3-fluoro-1-methylpiperidin-4-yl)amino)-3-((R)-2,2,2-trifluoro-1-hydroxyethyl)benzo[b]thiophen-2-yl)prop-2-yn-1-yl)amino)-3-methoxyphenyl)(imino)(methyl)-16-sulfanone] | 400 | –
109 | 266 | – | – | COc1cc([S@@](C)(=N)=O)ccc1NCC#Cc1sc2c(N[C@@H]3CCN(C)C[C@H]3F)cccc2c1[C@@H](O)C(F)(F)F [Example 59, (S)-(4-((3-(7-(((3R,4R)-3-fluoro-1-methylpiperidin-4-yl)amino)-3-((R)-2,2,2-trifluoro-1-hydroxyethyl)benzo[b]thiophen-2-yl)prop-2-yn-1-yl)amino)-3-methoxyphenyl)(imino)(methyl)-16-sulfanone] | 2060 | –
74 | 281 | – | – | COc1cc([S@@](C)(=N)=O)ccc1NCC#Cc1sc2c(N[C@@H]3CCN(C)C[C@@H]3F)cccc2c1[C@@H](O)C(F)(F)F [Example 60, (S)-(4-((3-(7-(((3S,4R)-3-fluoro-1-methylpiperidin-4-yl)amino)-3-((R)-2,2,2-trifluoro-1-hydroxyethyl)benzo[b]thiophen-2-yl)prop-2-yn-1-yl)amino)-3-methoxyphenyl)(imino)(methyl)-16-sulfanone] | – | 1800

Second part, the molecule before the results:

Structure (SMILES) | EC50 (p53(Y220C); [1]) [nM] | EC50 (p53(Y220C)_NUGC-3; [2]) [nM] | EC50 (p53(Y220C)) [nM] | EC50 (p53(Y220C)_NUGC-3; read-out: p53(Y220C)_NUGC-3 EC50, 6 hours, 37 °C, luciferase, normalized to Ref-1a 10 μM, EC50 = concentration at 50% Activity) [nM] | IC50 (NUGC-3 (P53 Y220C); Homo sapiens, 144 h) [nM] | IC50 (NUGC-3 (P53 Y220C)) [nM]
CCOc1c(P(C)(C)=O)ccc(NCC#Cc2sc3c(N[C@@H]4CCN(C)C[C@@H]4F)cccc3c2CC(F)(F)F)c1OC [Example 43, (2-ethoxy-4-((3-(7-(((3S,4R)-3-fluoro-1-methylpiperidin-4-yl)amino)-3-(2,2,2-trifluoroethyl)benzo[b]thiophen-2-yl)prop-2-yn-1-yl)amino)-3-methoxyphenyl)dimethylphosphine oxide] | 56 | 160 | – | – | 590 | –
COc1nc([S@](C)(=N)=O)ccc1NCC#Cc1sc2c(N[C@@H]3CCN(C)C[C@@H]3F)cccc2c1CC(F)(F)F [Example 44, (R)-(5-((3-(7-(((3S,4R)-3-fluoro-1-methylpiperidin-4-yl)amino)-3-(2,2,2-trifluoroethyl)benzo[b]thiophen-2-yl)prop-2-yn-1-yl)amino)-6-methoxypyridin-2-yl)(imino)(methyl)-16-sulfanone] | 46 | 84 | – | – | 1350 | –
COc1nc([S@@](C)(=N)=O)ccc1NCC#Cc1sc2c(N[C@@H]3CCN(C)C[C@@H]3F)cccc2c1CC(F)(F)F [Example 45, (S)-(5-((3-(7-(((3S,4R)-3-fluoro-1-methylpiperidin-4-yl)amino)-3-(2,2,2-trifluoroethyl)benzo[b]thiophen-2-yl)prop-2-yn-1-yl)amino)-6-methoxypyridin-2-yl)(imino)(methyl)-16-sulfanone] | 65 | 95 | – | – | 1330 | –
COc1cc(P(C)(C)=O)ccc1NCC#Cc1sc2c(N[C@@H]3CN4CCC3CC4)cccc2c1CC(F)(F)F [Example 48, (S)-(3-methoxy-4-((3-(7-(quinuclidin-3-ylamino)-3-(2,2,2-trifluoroethyl)benzo[b]thiophen-2-yl)prop-2-yn-1-yl)amino)phenyl)dimethylphosphine oxide] | – | – | 65 | 439 | 1600 | –
COc1cc([S@](=N)(=O)C2COC2)ccc1NCC#Cc1sc2c(N[C@@H]3CCN(C)C[C@@H]3F)cccc2c1CC(F)(F)F [Example 49, (R)-(4-((3-(7-(((3S,4R)-3-fluoro-1-methylpiperidin-4-yl)amino)-3-(2,2,2-trifluoroethyl)benzo[b]thiophen-2-yl)prop-2-yn-1-yl)amino)-3-methoxyphenyl)(imino)(oxetan-3-yl)-16-sulfanone] | 51 | 64 | – | – | – | 750
COc1cc([S@@](=N)(=O)C2COC2)ccc1NCC#Cc1sc2c(N[C@@H]3CCN(C)C[C@@H]3F)cccc2c1CC(F)(F)F [Example 50, (S)-(4-((3-(7-(((3S,4R)-3-fluoro-1-methylpiperidin-4-yl)amino)-3-(2,2,2-trifluoroethyl)benzo[b]thiophen-2-yl)prop-2-yn-1-yl)amino)-3-methoxyphenyl)(imino)(oxetan-3-yl)-16-sulfanone] | 25 | 76 | – | – | 1080 | –
COc1cc([S@](=N)(=O)C2CC2)ccc1NCC#Cc1sc2c(N[C@@H]3CCN(C)C[C@@H]3F)cccc2c1CC(F)(F)F [Example 53, (R)-cyclopropyl(4-((3-(7-(((3S,4R)-3-fluoro-1-methylpiperidin-4-yl)amino)-3-(2,2,2-trifluoroethyl)benzo[b]thiophen-2-yl)prop-2-yn-1-yl)amino)-3-methoxyphenyl)(imino)-16-sulfanone] | 39 | 128 | – | – | – | 680
